Measurements: patent US12624044B2, “SMARCA degraders and uses thereof” (Kymera Therapeutics, Inc., priority 2019, dated 2026)

What was measured:
Format in all cases: cell-based
SMARCA2 [1] = biological target: T1, SMARCA2 (Homo sapiens, UniProt P51531); experiment: MSD SMARCA2 degradation in A549 cell line; conditions: for Dmax: A549, A549 cells; for Dmax / DC50: 24 h; for DC50 / SMARCA2 MSD A549 degradation 24 h: Average Dmax %: A549 cells; for DC50: read-out: SMARCA2 MSD A549 degradation 24 h: Average external-Abs DC50
T1 sequence (P51531 whole entry): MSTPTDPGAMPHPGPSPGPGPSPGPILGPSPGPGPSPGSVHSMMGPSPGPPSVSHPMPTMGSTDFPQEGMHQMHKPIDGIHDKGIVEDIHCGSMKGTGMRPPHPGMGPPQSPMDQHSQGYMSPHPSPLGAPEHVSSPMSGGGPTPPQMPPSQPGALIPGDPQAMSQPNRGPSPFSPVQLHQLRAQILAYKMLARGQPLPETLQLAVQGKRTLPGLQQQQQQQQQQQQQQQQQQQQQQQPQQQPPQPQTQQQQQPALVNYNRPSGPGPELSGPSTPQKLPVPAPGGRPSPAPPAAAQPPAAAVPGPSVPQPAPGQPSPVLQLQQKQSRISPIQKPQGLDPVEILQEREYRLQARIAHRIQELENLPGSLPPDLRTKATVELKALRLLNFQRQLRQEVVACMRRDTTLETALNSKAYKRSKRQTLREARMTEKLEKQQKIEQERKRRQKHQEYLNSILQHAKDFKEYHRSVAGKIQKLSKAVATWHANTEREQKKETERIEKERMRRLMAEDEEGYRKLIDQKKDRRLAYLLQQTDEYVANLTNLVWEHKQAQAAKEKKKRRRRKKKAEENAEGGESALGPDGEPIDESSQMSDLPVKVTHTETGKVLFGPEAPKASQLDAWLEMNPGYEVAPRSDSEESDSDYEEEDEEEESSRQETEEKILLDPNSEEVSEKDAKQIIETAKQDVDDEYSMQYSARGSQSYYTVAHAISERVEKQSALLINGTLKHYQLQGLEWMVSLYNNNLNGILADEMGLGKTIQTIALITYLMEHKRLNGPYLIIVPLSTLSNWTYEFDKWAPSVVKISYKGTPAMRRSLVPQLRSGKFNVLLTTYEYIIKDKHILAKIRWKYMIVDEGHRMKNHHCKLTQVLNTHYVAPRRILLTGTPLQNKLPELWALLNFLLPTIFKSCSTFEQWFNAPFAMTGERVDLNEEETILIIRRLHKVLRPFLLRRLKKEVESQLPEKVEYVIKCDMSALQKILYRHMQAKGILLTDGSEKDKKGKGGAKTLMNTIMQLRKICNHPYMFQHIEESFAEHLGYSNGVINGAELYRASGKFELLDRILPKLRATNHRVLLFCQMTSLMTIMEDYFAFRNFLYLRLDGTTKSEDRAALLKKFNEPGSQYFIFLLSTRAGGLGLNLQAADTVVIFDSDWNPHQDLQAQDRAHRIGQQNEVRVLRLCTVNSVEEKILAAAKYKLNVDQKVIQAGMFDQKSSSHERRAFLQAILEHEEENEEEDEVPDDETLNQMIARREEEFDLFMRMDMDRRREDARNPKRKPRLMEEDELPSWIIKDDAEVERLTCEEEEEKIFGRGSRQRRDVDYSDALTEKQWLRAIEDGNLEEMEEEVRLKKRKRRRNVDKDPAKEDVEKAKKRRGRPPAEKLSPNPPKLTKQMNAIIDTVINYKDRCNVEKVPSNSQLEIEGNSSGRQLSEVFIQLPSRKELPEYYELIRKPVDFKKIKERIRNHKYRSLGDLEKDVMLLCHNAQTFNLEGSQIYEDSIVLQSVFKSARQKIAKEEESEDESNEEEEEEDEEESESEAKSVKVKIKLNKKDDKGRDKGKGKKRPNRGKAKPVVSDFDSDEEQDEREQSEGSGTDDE
Procedure, shortened: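 A549 cells treated 24 h with compound at final 0.152-1000 nM (3-fold series, DMSO control). Lysates analyzed by MSD immunoassay using anti-SMARCA2/BRM detection and SULFO-TAG secondary antibodies; maximal degradation (Dmax %) reported as letter bins.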

SMARCA2 [2] = biological target: T1, SMARCA2; experiment: SMARCA2 Western blot MV4-11 degradation; conditions: for Dmax: MV4-11, MV4-11 cells, read-out: SMARCA2 WB MV411 degradation 24 h: Average Dmax %; for Dmax / DC50: 24 h; for DC50 / SMARCA2 WB MV411 degradation 24 h: Average Dmax %: MV4-11 cells; for DC50: read-out: SMARCA2 WB MV411 degradation 24 h: Average external-Abs DC50
Protocol: Cells were seeded into 6-well plates (MV4-11: 4×10^6 cells/well/1 ml) and 1 ml of 2× compound solution was added into the well to make the final concentration and the plates were mixed well and incubated for 24 hours (No cytotoxicity was observed). The cell were collected with media and spun at 3000 rpm for 5 minutes. The supernatant was aspirated and the well and the cells were washed with cold PBS once and combined for centrifugation again; the supernatant aspirated again. 200 ul pre-chilled RIPAlysis buffer (Boston BioProducts BP-115D) with protease/phosphatase inhibitor (Roche 05892791001/Roche 04906837001) was directly added into the tube to lyze the cells for 20 minutes on ice. The cell lysate were collected into EP tubes and spun at 13000 rpm for 20 minutes and 72 ul supernatant was transferred to a fresh EP tube containing 18 ul of 5× loading buffer (Beyotime Bio P0015) to make the loading samples. The samples were heated to 100° C. for 10 minutes and cooled to RT and microcentrifuged. 20 ul of samples were loaded onto SDS-PAGE gel (Novex, WG1402BOX) and the gel was run at 80 V for 20 minutes and 120 V for 1.5 hours. The samples were electrotransfer to a NC membrane using wet-transfer method with 250 mA for 2.5 hours. The membrane was blocked with LICOR blocking buffer (LI-COR, 927-50000) for 1 hour. The membrane was washed three times with TBST (CST #9997S), 5 minutes each. Incubation was performed with primary antibody prepared in blocking buffer with 0.1% Tween-20 (Solarbio, P8220) at 4° C. overnight (Anti-SMARCA2/BRM antibody (ab15597) 1:500; Anti-BRG1 antibody [EPR3912] (ab108318) 1:1000; Rabbit anti-Baf180 antibody [EPR15860] (Abcam, ab196022) 1:1000; mouse anti-beta-Actin (8H10D10) (CST #3700) 1:10000). The membrane was washed three times with TBST, 5 minutes each. Incubation with secondary antibody was performed for 1 hour at RT (anti-rabbit IgG (Licor, 926-32211) 1:5000; anti-mouse IgG (LI-COR, 926-68070) 1:5000). The membrane was washed three times with TBST, 5 minutes each and lastly the LiCOR was read.
The letter codes for the percentage of SMARCA degradation after 24 hours (Dmax %) include: A (>90% degradation), B (>70-90% degradation), C (50-70% degradation), and D (<50% degradation).

SMARCA4 = biological target: T2, SMARCA4 (Homo sapiens, UniProt P51532); experiment: SMARCA4 Western blot MV4-11 degradation; conditions: for Dmax: MV4-11, MV4-11 cells, read-out: SMARCA4 WB MV411 degradation 24 h: Average Dmax %; for Dmax / DC50: 24 h; for DC50 / SMARCA4 WB MV411 degradation 24 h: Average Dmax %: MV4-11 cells; for DC50: read-out: SMARCA4 WB MV411 degradation 24 h: Average external-Abs DC50
T2 construct: SMARCA2 and SMARCA4 protein degradation in MV4-11 cells; endogenous in cells; host or cells: MV4-11
T2 sequence (P51532 whole entry): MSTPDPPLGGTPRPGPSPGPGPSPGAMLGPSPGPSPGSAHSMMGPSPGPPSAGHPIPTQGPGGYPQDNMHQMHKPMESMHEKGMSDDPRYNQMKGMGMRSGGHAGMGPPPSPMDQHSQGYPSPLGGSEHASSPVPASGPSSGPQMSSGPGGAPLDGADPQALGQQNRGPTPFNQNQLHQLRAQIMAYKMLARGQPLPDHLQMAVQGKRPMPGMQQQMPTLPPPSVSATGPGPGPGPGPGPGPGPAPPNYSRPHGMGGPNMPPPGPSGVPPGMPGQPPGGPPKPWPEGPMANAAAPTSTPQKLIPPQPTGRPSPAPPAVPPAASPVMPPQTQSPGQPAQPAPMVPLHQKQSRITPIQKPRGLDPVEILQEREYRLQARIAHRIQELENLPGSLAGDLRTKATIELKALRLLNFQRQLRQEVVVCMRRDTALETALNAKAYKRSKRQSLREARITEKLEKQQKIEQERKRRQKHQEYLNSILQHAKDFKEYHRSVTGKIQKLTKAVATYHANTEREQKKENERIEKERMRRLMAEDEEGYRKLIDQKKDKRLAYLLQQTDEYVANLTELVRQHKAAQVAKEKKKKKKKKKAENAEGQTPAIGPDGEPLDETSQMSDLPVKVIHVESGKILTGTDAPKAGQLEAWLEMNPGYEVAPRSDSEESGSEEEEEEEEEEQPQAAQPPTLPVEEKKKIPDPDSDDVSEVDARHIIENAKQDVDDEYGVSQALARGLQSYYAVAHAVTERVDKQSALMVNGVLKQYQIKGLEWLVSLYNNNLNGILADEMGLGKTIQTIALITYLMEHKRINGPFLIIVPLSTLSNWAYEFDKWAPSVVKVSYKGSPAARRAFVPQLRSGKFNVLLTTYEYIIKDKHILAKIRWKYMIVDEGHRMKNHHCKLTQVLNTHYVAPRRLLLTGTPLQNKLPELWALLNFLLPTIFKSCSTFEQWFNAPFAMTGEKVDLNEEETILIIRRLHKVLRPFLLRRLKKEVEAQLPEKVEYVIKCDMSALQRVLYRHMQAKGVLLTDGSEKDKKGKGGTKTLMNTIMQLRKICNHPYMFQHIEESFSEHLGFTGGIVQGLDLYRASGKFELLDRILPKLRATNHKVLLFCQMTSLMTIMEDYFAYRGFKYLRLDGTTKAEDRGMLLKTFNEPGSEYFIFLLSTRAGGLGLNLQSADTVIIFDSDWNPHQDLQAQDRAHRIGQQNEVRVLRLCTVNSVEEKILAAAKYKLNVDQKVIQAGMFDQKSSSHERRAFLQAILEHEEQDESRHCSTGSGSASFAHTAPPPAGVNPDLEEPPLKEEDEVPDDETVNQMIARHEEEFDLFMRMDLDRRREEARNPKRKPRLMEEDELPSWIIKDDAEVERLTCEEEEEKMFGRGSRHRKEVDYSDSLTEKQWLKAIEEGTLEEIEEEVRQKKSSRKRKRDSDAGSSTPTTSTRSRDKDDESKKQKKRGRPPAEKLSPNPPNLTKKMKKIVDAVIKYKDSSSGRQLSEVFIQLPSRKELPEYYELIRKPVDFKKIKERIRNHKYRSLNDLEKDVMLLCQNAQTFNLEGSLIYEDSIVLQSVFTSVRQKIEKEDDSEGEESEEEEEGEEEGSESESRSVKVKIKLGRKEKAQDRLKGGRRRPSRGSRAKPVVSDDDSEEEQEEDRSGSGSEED
Procedure, shortened: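 MV4-11 cells treated with compound for 24 h, lysed in RIPA with protease/phosphatase inhibitors, and SMARCA2 and SMARCA4 (BRG1) levels assessed by Western blot with β-actin loading control and LI-COR fluorescent read-out. Maximal degradation (Dmax %) after 24 h binned into letter codes.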

Row | SMILES | Dmax (SMARCA2 [1]) [%] | DC50 (SMARCA2 [1]) [nM] | Dmax (SMARCA2 [2]) [%] | DC50 (SMARCA2 [2]) [nM] | Dmax (SMARCA4) [%] | DC50 (SMARCA4) [nM] | SMARCA2 MSD A549 degradation 24 h: Average Dmax % (SMARCA2 [1]) | SMARCA2 WB MV411 degradation 24 h: Average Dmax % (SMARCA2 [2]) | SMARCA4 WB MV411 degradation 24 h: Average Dmax % (SMARCA4)
1 | Cc1ncsc1-c1ccc(CNC(=O)[C@@H]2C[C@@H](O)CN2C(=O)[C@@H](NC(=O)C2CCC(c3cnc(N4C5CCC4CN(c4cc(-c6ccccc6O)nnc4N)C5)nc3)CC2C)C(C)(C)C)cc1 (some centres unmarked) [I-411] | 50 to 70 | 501 to 1000 | > 90 | < 100 | > 90 | < 100 |  |  | 
2 | Cc1ncsc1-c1ccc(CNC(=O)[C@@H]2C[C@@H](O)CN2C(=O)[C@@H](NC(=O)[C@H]2CC[C@H](c3cnc(N4C5CCC4CN(c4cc(-c6ccccc6O)nnc4N)C5)nc3C)CC2)C(C)(C)C)cc1 [I-412] | > 90 | < 100 | > 90 | < 100 | > 90 | < 100 |  |  | 
3 | Cc1ncsc1-c1ccc(CNC(=O)[C@@H]2C[C@@H](O)CN2C(=O)[C@@H](NC(=O)[C@H]2CC3(C2)C[C@H](c2cnc(N4C5CCC4CN(c4cc(-c6ccccc6O)nnc4N)C5)nc2)C3)C(C)(C)C)c(C(F)(F)F)c1 (some centres unmarked) [I-419] | > 90 | 100 to 500 | > 90 | < 100 | 70 to 90 | 100 to 500 |  |  | 
4 | Cc1ncsc1-c1ccc(CNC(=O)[C@@H]2C[C@@H](O)CN2C(=O)[C@@H](NC(=O)[C@H]2C[C@]3(C2)C[C@H](c2cnc(N4C5CCC4CN(c4cc(-c6ccccc6O)nnc4N)C5)nc2)C3)C(C)(C)C)c(C(F)(F)F)c1 (some centres unmarked) [I-420] |  | 100 to 500 |  | < 100 |  | 100 to 500 | A (A (>90% degradation)) | B (B (>70-90% degradation)) | D (D (<50% degradation))
5 | Cc1ncsc1-c1ccc(CNC(=O)[C@@H]2C[C@@H](O)CN2C(=O)[C@@H](NC(=O)[C@H]2CC3(C2)C[C@H](N2CCC(c4cnc(N5C6CCC5CN(c5cc(-c7ccccc7O)nnc5N)C6)nc4)CC2)C3)C(C)(C)C)cc1 (some centres unmarked) [I-423] | > 90 | < 100 | > 90 | < 100 | 50 to 70 | 100 to 500 |  |  | 
6 | Cc1ncsc1-c1ccc(CNC(=O)[C@@H]2C[C@@H](O)CN2C(=O)[C@@H](NC(=O)[C@H]2CC3(C2)C[C@H](N2CCC(c4cnc(N5C6CCC5CN(c5cc(-c7ccccc7O)nnc5N)C6)nc4)CC2)C3)C(C)(C)C)cc1 (some centres unmarked) [I-424] |  | < 100 |  | < 100 |  | > 1000 | A (A (>90% degradation)) | A (A (>90% degradation)) | D (D (<50% degradation))
7 | Cc1ncsc1-c1ccc(CNC(=O)[C@@H]2C[C@@H](O)CN2C(=O)[C@@H](NC(=O)C23CCC(CN4CCC(c5cnc(N6C7CCC6CN(c6cc(-c8ccccc8O)nnc6N)C7)nc5)CC4)(CC2)CC3)C(C)(C)C)cc1 [I-425] | > 90 | < 100 | > 90 | < 100 | 70 to 90 | 100 to 500 |  |  | 
8 | Cc1ncsc1-c1ccc(CNC(=O)[C@@H]2C[C@@H](O)CN2C(=O)[C@@H](NC(=O)[C@H]2C[C@]3(C[C@H](CN4CCC(c5cnc(N6C7CCC6CN(c6cc(-c8ccccc8O)nnc6N)C7)nc5)CC4)C3)C2)C(C)(C)C)cc1 (some centres unmarked) [I-427] |  | < 100 | > 90 | < 100 | < 50 | 100 to 500 |  |  | 
9 | Cc1ncsc1-c1ccc(CNC(=O)[C@@H]2C[C@@H](O)CN2C(=O)[C@@H](NC(=O)C23CCC(CN4CCC(n5cc(-c6cc(-c7ccccc7O)nnc6N)cn5)CC4)(CC2)CC3)C(C)(C)C)cc1 [I-428] | > 90 | 100 to 500 | > 90 | < 100 | 70 to 90 | 100 to 500 |  |  | 
10 | CC(=O)Nc1cc(-c2scnc2C)ccc1CNC(=O)[C@@H]1C[C@@H](O)CN1C(=O)[C@@H](NC(=O)[C@H]1CC[C@H](c2cnc(N3C4CCC3CN(c3cc(-c5ccccc5O)nnc3N)C4)nc2)CC1)C(C)(C)C [I-430, (2S,4R)—N-(2-acetamido-4-(4-methylthiazol-5-yl)benzyl)-1-((2S)-2-((1r,4S)-4-(2-(3-(3-amino-6-(2-hydroxyphenyl)pyridazin-4-yl)-3,8-diazabicyclo [3.2.1]octan-8-yl)pyrimidin-5-yl)cyclohexanecarboxamido)-3,3-dimethylbutanoyl)-4-hydroxypyrrolidine-2-carboxamide] | > 90 | < 100 | > 90 | < 100 | > 90 | < 100 |  |  | 
11 | Cc1ncsc1-c1ccc(CNC(=O)[C@@H]2C[C@@H](O)CN2C(=O)[C@@H](NC(=O)[C@H]2CC[C@H](c3cnc(N4C5CCC4CN(c4cc(-c6ccccc6O)nnc4N)C5)nc3)CC2)C(C)(C)C)c(C(=O)N(C)C)c1 [I-431] | > 90 | < 100 | > 90 | < 100 | > 90 | < 100 |  |  | 
12 | Cc1ncsc1-c1ccc(CNC(=O)[C@@H]2C[C@@H](O)CN2C(=O)[C@@H](NC(=O)[C@H]2CC3(C2)C[C@H](c2ccc(CN4CCC(Cn5cc(-c6cc(-c7ccccc7O)nnc6N)cn5)CC4)cc2)C3)C(C)(C)C)cc1 (some centres unmarked) [I-433] | > 90 | < 100 | > 90 | < 100 |  | < 100 |  |  | C (C (50-70% degradation))
13 | Cc1ncsc1-c1ccc(CNC(=O)[C@@H]2C[C@@H](O)CN2C(=O)[C@@H](NC(=O)[C@H]2C[C@@]3(C2)C[C@H](c2ccc(CN4CCC(Cn5cc(-c6cc(-c7ccccc7O)nnc6N)cn5)CC4)cc2)C3)C(C)(C)C)cc1 (some centres unmarked) [I-434] |  | < 100 |  | < 100 |  | < 100 | A (A (>90% degradation)) | A (A (>90% degradation)) | A (A (>90% degradation))
14 | Cc1ncsc1-c1ccc(CNC(=O)[C@@H]2C[C@@H](O)CN2C(=O)[C@@H](NC(=O)[C@H]2CC[C@H](Cc3ccc(-c4cnc(N5C6CCC5CN(c5cc(-c7ccccc7O)nnc5N)C6)nc4)cc3)CC2)C(C)(C)C)cc1 [I-437] | > 90 | < 100 | > 90 | < 100 | > 90 | 100 to 500 |  |  | 
15 | Cc1ncsc1-c1ccc([C@H](C)NC(=O)[C@@H]2C[C@@H](O)CN2C(=O)[C@@H](NC(=O)[C@H]2CC[C@H](c3cnc(N4C5CCC4CN(c4cc(-c6ccccc6O)nnc4N)C5)nc3)CC2)C(C)(C)C)cc1 [I-438] | > 90 | < 100 | > 90 | < 100 | > 90 | < 100 |  |  | 
16 | Cc1ncsc1-c1ccc(C2(NC(=O)[C@@H]3C[C@@H](O)CN3C(=O)[C@@H](NC(=O)[C@H]3CC[C@H](c4cnc(N5C6CCC5CN(c5cc(-c7ccccc7O)nnc5N)C6)nc4)CC3)C(C)(C)C)CC2)cc1 [I-439] | > 90 | < 100 | > 90 | < 100 | > 90 | < 100 |  |  | 
17 | Cc1ncsc1-c1ccc(CNC(=O)[C@@H]2C[C@@H](O)CN2C(=O)[C@@H](NC(=O)C2CCC(c3cnc(N4C5CCC4CN(c4cc(-c6ccccc6O)nnc4N)C5)nc3)CC2C)C(C)(C)C)cc1 (some centres unmarked) [I-444] |  | 501 to 1000 |  | < 100 |  | < 100 |  |  | 
18 | Cc1ncsc1-c1ccc(CNC(=O)[C@@H]2C[C@@H](O)CN2C(=O)[C@@H](NC(=O)C2CC(N3CCC(n4cc(-c5cc(-c6ccccc6O)nnc5N)cn4)CC3)C2)C(C)(C)C)cc1 (some centres unmarked) [I-484] | 70 to 90 | 100 to 500 | > 90 | < 100 | 70 to 90 | 100 to 500 |  |  | 
